Data on seven compounds can be found in US10342796B2, “Acrylanilide derivative, preparation method, and applications thereof in pharmacy” (Ancureall Pharmaceutical (Shanghai) Co., Ltd., priority 2015, dated 2019).

The subject of test [1] is PC-9 tumor cells. The experiment in a line: In vivo tumor growth inhibition, xenograft. The arrangement: species or system Bab/c nude mice. The conditions noted are these: Mus musculus, po, 456 h; 25 mg/kg intragastric once daily, day 19; read-out: TGI (%) PC-9. An excerpt:
(§1) Tumor xenograft models of immunodeficient mice are an effective tool to test the antitumor activity of the compound in vivo. Generally, the effectiveness of human tumor cell xenograft is positively correlated with the clinical treatment of human tumor. Bab/c immunodeficient mouse is one of the most commonly used xenograft animals with human tumor cells. In order to test whether the present compounds can inhibit the in vivo growth of the tumor cells expressing EGFR mutantion or HER2/ErbB2 overexpression, H1975, PC-9 and NCI-N87 cell lines were used in the experiments. When H1975, PC-9 and NCI-N87 cells were in growth logarithmic phase, they were digested with pancreatin. An appropriate amount of 1×RPMI1640 culture medium (serum-free) was added to stop digestion. The cells were collected to a 50 ml centrifuge tube (Corning), and centrifuged at 1700 rm for 3 min. The supernatant was discard, then the cells were suspended with 1×RPMI1640 culture medium and count the number. […] cells/mL was prepared and then placed on ice. 5˜10×10^6 (0.2 ml) cells were inoculated subcutaneously on the right side of the back of 6˜8 week old female Bab/c nude mice (about 20 g in weight). When the tumor average volume growed to 100˜200 mm^3, the mice were randomly divide into groups (3-6 mice per group), and marked by ear pierced tags and weighted. The test compounds and the reference compound (with a purity over 99% and individual impurity not higher than 0.2%) were formulated to emulsion suspension with CM (30% polyethylene glycol 400, 0.5% Tween-80 and 2.5% propylene glycol) respectively. Intragastric administration was continued once daily at a dosage of 25 mg/kg (0.1 ml/10 g mouse). The tumor was measured 3 times per week. When the average volume of the tumor in CM control group was up to 1500 mm^3 or after administration for 30 days, the experiment was ended.
(§2) The volume of tumor (V) was calculated as V=½*a*b^2 (a represents length of tumors, b represents width of tumors). Tumor growth inhibition (TGI) was calculated as: TGI (%)=100−(VT−VT0)/(VC−VC0)*100%; where VT0 and VT are the tumor volumes of the beginning and finish days of dosed groups; and VC0 and VC are the tumor volumes of the beginning and finish days for the control group, respectively.

Test [2] deals with HER2/ErbB2 amplified cell line N87. The experiment in a line: In vivo tumor growth inhibition, xenograft. The arrangement: species or system Bab/c nude mice. The conditions noted are these: Mus musculus, po, 456 h, 25 mg/kg intragastric once daily, day 19, read-out: TGI (%).
Excerpt: as §1, §2

For test [3], the system named is H1975 tumor cells. In words: In vivo tumor growth inhibition, xenograft. The note with it: Mus musculus, NCI-H1975, po, 456 h; 25 mg/kg intragastric once daily, day 19; read-out: TGI (%) H1975. Details: species or system Bab/c nude mice.
Excerpt: as §1, §2

For test [4], the system named is HCT116 (EGFR wt, Kras G13D). The experiment in a line: Growth inhibition GI50 in vitro (CCK8/MTT, 72 h). It counts as cell-based. The conditions noted are these: Homo sapiens, HCT-116; HCT116, EGFR wt, Kras G13D; read-out: GI50. The protocol:
(§3) The suspension cells were collected by centrifugation. The supernatant was discard and the cell pellet was resuspended and counted. Different cell concentrations (5˜10×10^4 cells/mL) were prepared according to the growth cycle of each cell line and then seeded on a 96-well plate (Corning), 100 μL/well. The cells were incubated over night at 37° C., 5% CO2. The compounds were added to the cells on the second day with 2 wells in parallel. The final concentration of organic solvent shall not exceed 1%. The cells were continually incubated for 72 h, and then subjected to MTT assay.
(§4) The present compounds and the reference compounds were dissolved with DMSO (Sigma), respectively. […] The storage concentration of compounds was 10 mM and kept at −20° C. They were diluted by 2 times or 10 times with serial dilution before using.
(§5) Dojindo CCK8 reagent kit was used as MTT assay. […] FC meter was used as microplate reader.
(§6) Adherent cell culture medium was discard and immediately replaced with fresh prepared medium which contains 10% CCK8 reagent (100 μL/well). For the suspension cells, CCK8 was directly added to 10% of the final concentration. The cells were continually incubated for 1˜4 h. When the color of control wells turned to dark yellow, the absorption value was measured at OD450 nm. The cell growth rate was calculated according to the following formula: cell growth rate (%)=100*(T−T0)/(C−T0), T=optical density of drug treatment cell well—optical density of blank control well; T0=optical density of cell well before drug treatment—optical density of blank control well; C=optical density of cell well of solvent control group—optical density of blank control well. […] The experiment was independently repeated 1˜3 times, and subject to biological statistical analysis.
(§7) Growth inhibition assay was conducted in the cell lines shown Table 14 with the different oncogene mutations. Each compound started at 1000 nM as an initial concentration and was diluted by 2 times with serial dilution to 0.03 nM.

Test [5] has as its system K562 (BCR-ABL). The experiment in a line: Growth inhibition GI50 in vitro (CCK8/MTT, 72 h). The conditions noted are these: Homo sapiens. It counts as cell-based. The protocol: Human leukemia cell line K562 (expressing BCR-ABL fusion protein) (ATCC) was cultured with 1×RPMI1640 complete medium (supplement with 10% FBS).
as §3, §4, §5, §6, §7

Test [6] concerns A375 (EGFR wt, BRAF V600E). In words: Growth inhibition GI50 in vitro (CCK8/MTT, 72 h). It counts as cell-based. The conditions noted are these: Homo sapiens, A-375; A375, EGFR wt, BRAF V600E; read-out: GI50.
Excerpt: EGFR wild type cell lines: human epidermal cancer cell line A431 (EGFR WT, amplification and high expression, from Shanghai Cell Bank of Chinese Academy of Sciences and ATCC), NSCLC cell lines NCI-H460 (EGFR WT, Kras G61H and PI3KCA E545K mutants, ATCC) and NCI-H1299 (EGFR WT, ATCC), melanoma cell line A375 (EGFR WT and BRAF V600E mutant, from Shanghai Cell Bank of Chinese Academy of Sciences, ATCC), human lung cancer cell line NCI-H292 (EGFR WT, from human lung mucoepidermoid carcinoma/lymphatic metastasis, purchased from Shanghai Cell Bank of Chinese Academy of Sciences) were cultured with 1×RPMI1640 complete medium which was supplement with 10% FBS. NSCLC cell line A549 (EGFR WT and Kras G12S mutant, from Shanghai Cell Bank of Chinese Academy of Sciences) was cultured with 1×Ham'S F12K complete medium which was supplement with 10% FBS, 1% double-antibiotics and 2 mM glutamine.
as §3, §4, §5, §6, §7

Test [7] relates to H2228 (EML4-ALK). The experiment in a line: Growth inhibition GI50 in vitro (CCK8/MTT, 72 h). The conditions noted are these: Homo sapiens, NCI-H2228, H2228, EGFR wt. It counts as cell-based.
For test [8], the system named is MKN-45 (Met amp). In words: Growth inhibition GI50 in vitro (CCK8/MTT, 72 h). It counts as cell-based. The conditions noted are these: Homo sapiens, MKN-45, EGFR wt. The protocol: (§8) Human gastric cancer cell line MKN-45 (ATCC) and NSCLC cell line NCI-H1993 (ATCC) were cultured with 1×RPMI1640 complete medium which was supplement with 10% FBS, respectively.
as §3, §4, §5, §6, §7

Test [9] concerns H1993 (Met amp). In words: Growth inhibition GI50 in vitro (CCK8/MTT, 72 h). It counts as cell-based. The conditions noted are these: Homo sapiens, NCI-H1993, H1993, EGFR wt. The procedure: as §8, §3, §4, §5, §6, §7

SMILES strings stand for the structures. A value given as a limit tells only on which side of the number the result lay.

Turning to `C=CC(=O)Nc1cc(Nc2nccc(-n3ccc4ccc(F)cc43)n2)c(OC)cc1N(C)CCN(C)C` [Compound 63, N-(5-(4-(6-fluoro-1H-indol-1-yl)-pyrimidin-2-ylamino)-2-((2-(dimethylamino)ethyl)-methyl-amino)-4-methoxyl-phenyl)-acrylamide], the inhibition in vivo at 25 mg/kg in [1] was 98.3%; in test [2], 94.7%; in test [3], 98.3%.

As for `C=CC(=O)Nc1cc(Nc2nccc(-n3ccc4c(OC)cccc43)n2)c(OC)cc1N(C)CCN(C)C` [Compound 99, N-(5-(4-(4-methoxyl-1H-indol-1-yl)-pyrimidin-2-ylamino)-2-(2-(dimethylamino-ethyl)-methyl-amino)-4-methoxyl-phenyl)-acrylamide], the results for the inhibition in vivo at 25 mg/kg in test [1], in [2] and in test [3] were 95.8%, 95.4% and 94.6%, respectively.

Regarding `C=CC(=O)Nc1cc(Nc2ncnc(Nc3cccc(Br)c3)n2)c(OC)cc1N(C)CCN(C)C` [Compound 115, N-(5-(4-(3-bromo-phenylamino)-[1,3,5]triazin-2-ylamino)-2-((2-dimethylamino-ethyl)-methyl-amino)-4-methoxyl-phenyl)-acrylamide], the inhibition in vivo at 25 mg/kg worked out at 97.1% in test [1], 97.8% in [2] and 59.1% in test [3].

`C=CC(=O)Nc1cc(Nc2cc(-c3cn(C(C)C)c4ccccc34)ncn2)c(OC)cc1N(C)CCN(C)C` [Compound 183]: the concentration for 50% growth inhibition (GI50) (usually the concentration at which growth is held to half of that of the control) in [4] was above 1000 nM; in [5] it was above 1000 nM; in test [6], above 1000 nM; in test [7], above 500 nM; in test [8], 500 nM; in test [9] it was above 1000 nM. The inhibition in vivo at 25 mg/kg was 98.8% in test [1], 97.7% in test [2] and 97.4% in [3].

For the compound `C=CC(=O)Nc1cc(Nc2cc(-c3cn(C(C)C)c4ccc(F)cc34)ncn2)c(OC)cc1N(C)CCN(C)C` [Compound 191, N-(5-(6-(5-fluoro-1-isopropyl-1H-indol-3-yl)-pyrimidin-4-ylamino)-4-methoxyl-2-((2-dimethylamino-ethyl)-methyl-amino)-phenyl)-acrylamide], the inhibition in vivo at 25 mg/kg was 98.8% in test [1], 96.6% in [2] and 99.3% in [3].

`C=CC(=O)Nc1cc(Nc2cc(Nc3ccc(OCC4CCOCC4)c(Cl)c3)ncn2)c(OC)cc1N(C)CCN(C)C` [Compound 216, N-(5-(6-(3-chloro-4-(tetrahydropyran-4-yl-methoxyl)-phenylamino)-pyrimidin-4-ylamino)-2-((2-dimethylaminoethyl)-methyl-amino)-4-methoxyphenyl)-acrylamide]: the inhibition in vivo at 25 mg/kg in test [2] was found to be 97.6%.

With `C=CC(=O)Nc1cc(Nc2cc(Nc3cc(F)c(OC)c(Cl)c3)ncn2)c(OC)cc1N(C)CCN(C)C` [Compound 236, N-(5-(6-(3-chloro-5-fluoro-4-methoxyphenylamino)-pyrimidin-4-yl-amino)-2-((2-dimethylamino-ethyl)-methyl-amino)-4-methoxyl-phenyl)-acrylamide], in test [2], the inhibition in vivo at 25 mg/kg was found to be 97.5%.
